PubChem BioAssay (NCI)
Several values for one entry are separate records, joined by “and”; a condition that tells them apart may be missing. Equal values may be shown once.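 Assay format: 96-well plates, 48-hour exposure. GI50: concentration for 50% inhibition of growth. TGI: concentration producing complete growth inhibition.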

What was measured:
Experiment in all cases: NCI tumour cell line growth inhibition, 48 h
SNB-75 CNS = test system: SNB-75 CNS
HL-60(TB) leukemia = test system: HL-60(TB) leukemia
SNB-19 CNS = test system: SNB-19 CNS
SW-620 colon = test system: SW-620 colon
HOP-62 NSCLC = test system: HOP-62 NSCLC
MOLT-4 leukemia = test system: MOLT-4 leukemia
DLD-1 colon = test system: DLD-1 colon
IGROV1 ovarian = test system: IGROV1 ovarian
NCI-H460 lung = test system: NCI-H460 lung
EKVX NSCLC = test system: EKVX NSCLC
HCT-15 colon = test system: HCT-15 colon
OVCAR-5 ovarian = test system: OVCAR-5 ovarian
SF-295 CNS = test system: SF-295 CNS
SF-539 CNS = test system: SF-539 CNS
SK-MEL-28 melanoma = test system: SK-MEL-28 melanoma
U251 CNS = test system: U251 CNS
SR leukemia = test system: SR leukemia
786-0 renal = test system: 786-0 renal
RPMI-8226 leukemia = test system: RPMI-8226 leukemia
UACC-62 melanoma = test system: UACC-62 melanoma
OVCAR-8 ovarian = test system: OVCAR-8 ovarian
OVCAR-3 ovarian = test system: OVCAR-3 ovarian
HOP-18 NSCLC = test system: HOP-18 NSCLC
NCI-H23 lung = test system: NCI-H23 lung
MALME-3M melanoma = test system: MALME-3M melanoma
HCC-2998 colon = test system: HCC-2998 colon
COLO 205 colon = test system: COLO 205 colon
M14 melanoma = test system: M14 melanoma
SK-MEL-5 melanoma = test system: SK-MEL-5 melanoma
UACC-257 melanoma = test system: UACC-257 melanoma
A498 renal = test system: A498 renal
TK-10 renal = test system: TK-10 renal
UO-31 renal = test system: UO-31 renal
SF-268 CNS = test system: SF-268 CNS
OVCAR-4 ovarian = test system: OVCAR-4 ovarian
SNB-78 CNS = test system: SNB-78 CNS
M19-MEL melanoma = test system: M19-MEL melanoma
K-562 leukemia = test system: K-562 leukemia
CAKI-1 renal = test system: CAKI-1 renal
NCI-H522 lung = test system: NCI-H522 lung
RXF-631 renal = test system: RXF-631 renal
SK-MEL-2 melanoma = test system: SK-MEL-2 melanoma
HT29 colon = test system: HT29 colon
LOX IMVI melanoma = test system: LOX IMVI melanoma
CCRF-CEM leukemia = test system: CCRF-CEM leukemia
RXF 393 renal = test system: RXF 393 renal
XF 498 CNS = test system: XF 498 CNS
SN12C renal = test system: SN12C renal
NCI-H226 lung = test system: NCI-H226 lung
LXFL 529 NSCLC = test system: LXFL 529 NSCLC
KM20L2 colon = test system: KM20L2 colon
HOP-92 NSCLC = test system: HOP-92 NSCLC
DMS 114 small cell lung = test system: DMS 114 small cell lung
SK-OV-3 ovarian = test system: SK-OV-3 ovarian
HCT-116 colon = test system: HCT-116 colon
DMS 273 small cell lung = test system: DMS 273 small cell lung
KM12 colon = test system: KM12 colon
A549 NSCLC = test system: A549 NSCLC
ACHN renal = test system: ACHN renal

**Q.** For `CC(=O)OC1COC(N2CCc3ccccc32)C(OC(C)=O)C1OC(C)=O` (configuration not stated), which GI50 (SNB-75 CNS) is on record?
**A.** > 100 µM

**Q.** And the TGI (SNB-75 CNS)?
**A.** > 100 µM

**Q.** What about the GI50 (HL-60(TB) leukemia) of the same compound?
**A.** 89.3 µM and 28.2 µM

**Q.** And the TGI (HL-60(TB) leukemia)?
**A.** > 100 µM

**Q.** What about the TGI (SNB-19 CNS) of the same compound?
**A.** > 100 µM

**Q.** What about the TGI (SW-620 colon) of the same compound?
**A.** > 100 µM

**Q.** What about the TGI (HOP-62 NSCLC) of the same compound?
**A.** > 100 µM

**Q.** What about the TGI (MOLT-4 leukemia) of the same compound?
**A.** > 100 µM

**Q.** And the TGI (DLD-1 colon)?
**A.** > 100 µM

**Q.** And the TGI (IGROV1 ovarian)?
**A.** > 100 µM

**Q.** And the TGI (NCI-H460 lung)?
**A.** > 100 µM

**Q.** What about the TGI (EKVX NSCLC) of the same compound?
**A.** > 100 µM

**Q.** And the TGI (HCT-15 colon)?
**A.** > 100 µM

**Q.** And the TGI (OVCAR-5 ovarian)?
**A.** > 100 µM

**Q.** What about the TGI (SF-295 CNS) of the same compound?
**A.** > 100 µM

**Q.** And the TGI (SF-539 CNS)?
**A.** > 100 µM

**Q.** What about the TGI (SK-MEL-28 melanoma) of the same compound?
**A.** > 100 µM

**Q.** And the TGI (U251 CNS)?
**A.** > 100 µM

**Q.** What about the TGI (SR leukemia) of the same compound?
**A.** > 100 µM

**Q.** What about the TGI (786-0 renal) of the same compound?
**A.** > 100 µM

**Q.** And the TGI (RPMI-8226 leukemia)?
**A.** > 100 µM

**Q.** And the TGI (UACC-62 melanoma)?
**A.** > 100 µM

**Q.** And the TGI (OVCAR-8 ovarian)?
**A.** > 100 µM

**Q.** And the TGI (OVCAR-3 ovarian)?
**A.** > 100 µM

**Q.** What about the TGI (HOP-18 NSCLC) of the same compound?
**A.** > 100 µM

**Q.** What about the TGI (NCI-H23 lung) of the same compound?
**A.** > 100 µM

**Q.** And the TGI (MALME-3M melanoma)?
**A.** > 100 µM

**Q.** What about the TGI (HCC-2998 colon) of the same compound?
**A.** > 100 µM

**Q.** What about the TGI (COLO 205 colon) of the same compound?
**A.** > 100 µM

**Q.** What about the TGI (M14 melanoma) of the same compound?
**A.** > 100 µM

**Q.** And the TGI (SK-MEL-5 melanoma)?
**A.** > 100 µM

**Q.** What about the TGI (UACC-257 melanoma) of the same compound?
**A.** > 100 µM

**Q.** What about the TGI (A498 renal) of the same compound?
**A.** > 100 µM

**Q.** And the TGI (TK-10 renal)?
**A.** > 100 µM

**Q.** And the TGI (UO-31 renal)?
**A.** > 100 µM

**Q.** And the TGI (SF-268 CNS)?
**A.** > 100 µM

**Q.** What about the TGI (OVCAR-4 ovarian) of the same compound?
**A.** > 100 µM

**Q.** And the TGI (SNB-78 CNS)?
**A.** > 100 µM

**Q.** What about the TGI (M19-MEL melanoma) of the same compound?
**A.** > 100 µM

**Q.** What about the TGI (K-562 leukemia) of the same compound?
**A.** > 100 µM

**Q.** What about the TGI (CAKI-1 renal) of the same compound?
**A.** > 100 µM

**Q.** And the TGI (NCI-H522 lung)?
**A.** > 100 µM

**Q.** What about the TGI (RXF-631 renal) of the same compound?
**A.** > 100 µM

**Q.** What about the TGI (SK-MEL-2 melanoma) of the same compound?
**A.** > 100 µM

**Q.** What about the TGI (HT29 colon) of the same compound?
**A.** > 100 µM

**Q.** And the TGI (LOX IMVI melanoma)?
**A.** > 100 µM

**Q.** And the TGI (CCRF-CEM leukemia)?
**A.** > 100 µM

**Q.** And the TGI (RXF 393 renal)?
**A.** > 100 µM

**Q.** And the TGI (XF 498 CNS)?
**A.** > 100 µM

**Q.** What about the TGI (SN12C renal) of the same compound?
**A.** > 100 µM

**Q.** And the TGI (NCI-H226 lung)?
**A.** > 100 µM

**Q.** What about the TGI (LXFL 529 NSCLC) of the same compound?
**A.** > 100 µM

**Q.** What about the TGI (KM20L2 colon) of the same compound?
**A.** > 100 µM

**Q.** What about the GI50 (HOP-92 NSCLC) of the same compound?
**A.** > 100 µM

**Q.** And the TGI (HOP-92 NSCLC)?
**A.** > 100 µM

**Q.** And the TGI (DMS 114 small cell lung)?
**A.** > 100 µM

**Q.** And the TGI (SK-OV-3 ovarian)?
**A.** > 100 µM

**Q.** And the TGI (HCT-116 colon)?
**A.** > 100 µM

**Q.** And the TGI (DMS 273 small cell lung)?
**A.** > 100 µM

**Q.** What about the TGI (KM12 colon) of the same compound?
**A.** > 100 µM

**Q.** What about the TGI (A549 NSCLC) of the same compound?
**A.** > 100 µM

**Q.** And the TGI (ACHN renal)?
**A.** > 100 µM
